Laboratory results from article PMC10291556 (Journal of Medicinal Chemistry, 2023).

What was measured:
HeLa cells [1] = test: Re-adhesion assay; assay type: cell-based, human; conditions: 10× IC50, 1 h
Description: Figure 7 (A–E) Wound healing assay. The monolayer of HeLa cells was scratched with a 10 μL tip, and a starving medium containing the tested complexes was added. The shots were taken at times 0 and 24 h. (A) Control, non-treated cells; (B) cells treated with complex 3; (C) cells treated with complex 4. […] (E) Evaluation of wound healing assay. Bars represent gap size vs. Control (100%), following a 24 h incubation with the investigated compounds. Light gray bars: complex 3; dark gray bars: complex 4; black bar: complex 2. (F) Re-adhesion assay. […] Following trypsinization, the cells were resuspended in Dulbecco’s modified Eagle medium (DMEM), counted, left to reconstitute adhesive membrane proteins for 30 min, and re-seeded at the density of 3× 10^4 cells/100 μL/well. After 30 min of incubation at 37 °C, the re-adhesion activity was determined as described in the Experimental Section. […]
HeLa cells were grown in 6-well plates for 24 h. […] Following the treatment, the cells were trypsinized, washed, and resuspended in fresh serum-free medium, counted, and left at room temperature for 30 min to allow surface receptor reconstitution. […] The number of adhered cells was determined with sulforhodamine B (SRB) assay. […] The bound SRB was dissolved in 10 mM Tris base (pH 10.5), and the absorbance was recorded at 570 nm with an Absorbance Reader (SUNRISE TECAN, SCHOELLER). […]

HeLa cells [2] = test: Wound healing assay; assay type: cell-based, human; conditions: 24 h, multiples of IC50,72h
Description: Figure 7 (A–E) Wound healing assay. The monolayer of HeLa cells was scratched with a 10 μL tip, and a starving medium containing the tested complexes was added. The shots were taken at times 0 and 24 h. (A) Control, non-treated cells; (B) cells treated with complex 3; (C) cells treated with complex 4. […] (E) Evaluation of wound healing assay. Bars represent gap size vs. Control (100%), following a 24 h incubation with the investigated compounds. Light gray bars: complex 3; dark gray bars: complex 4; black bar: complex 2. (F) Re-adhesion assay. […] Following trypsinization, the cells were resuspended in Dulbecco’s modified Eagle medium (DMEM), counted, left to reconstitute adhesive membrane proteins for 30 min, and re-seeded at the density of 3× 10^4 cells/100 μL/well. After 30 min of incubation at 37 °C, the re-adhesion activity was determined as described in the Experimental Section. Data represents mean ± SD, n = 8; *p < 0.05, **p < 0.01, ***p < 0.001.
HeLa cells were grown close to confluence in 6-well plates in a complete medium, and then the medium was replaced with a serum-free medium [supplemented with 0.1% bovine serum albumin (BSA)], and the cells were incubated for an additional 24 h. The HeLa monolayers were scratched with a 10 μL pipet tip, and the cells were washed twice with PBS to remove peeled cells and treated with tested compounds at indicated concentrations. The scratched areas were shot immediately after the complex addition and then after 24 h with a Canon EOS 1200D camera attached to an Olympus CKX41 inverted microscope with a 10×/0.25 phase contrast objective. Digital images were taken by the QuickPHOTO MICRO 3.1 program (PROMICRA, Prague, Czech Republic) and processed with the TScratch analysis software (ETH Zürich, Switzerland). The cell’s ability to migrate into the open area was expressed as a percentage of control.

[3] = test system: DNA isolated from HeLa cells; test: Pt associated with DNA isolated from treated HeLa cells; assay type: cell-based, human; conditions: 1 µM compound, 6 h, mean ± SD
From the text: page 16: Table S1: […] concentration of tested compounds for 6 ha. […] Figure S19: A. Representative histograms obtained by flow cytometric analysis of calreticulin exposure in HeLa cells treated with indicated compounds. B. An example of gating DAPI negative population. Only DAPI-negative cells were taken for the evaluation.

HeLa cells [4] = test: Glucose consumption; assay type: cell-based, human; conditions: 24 h, IC50 concentrations
Description: Figure 3 (A) Lactate production. Relative lactate concentration in medium following a 6 h treatment of HeLa cells with the investigated compounds at concentrations corresponding to 5× IC50. […] Data represents mean ± SD, n = 2–4; asterisks indicate a statistically significant difference from the untreated control (*p < 0.01, **p < 0.005, ***, ***p < 0.001).
Glucose concentration in the culture medium prior to and after the treatment was determined with an Amplex Red Glucose/Glucose Oxidase Assay Kit (Invitrogen) following the producer’s protocol. Glucose consumption was normalized to final cell counts. The glucose amount consumed by the non-treated control was taken at 100%.

COX in HeLa cells = test: COX activity assay (kit) in treated cells; assay type: cell-based, human; conditions: 24 h, 1× IC50,72h, vs untreated control
Description: The results are expressed relative to the COX activity of untreated control.
HeLa cells were seeded in 6-well plates at a density of 10^5 cells/well and incubated overnight. The cells were treated with the tested compounds at concentrations corresponding to 1× IC50. Following a 24 h treatment, the cells were lyzed with radioimmunoprecipitation assay (RIPA) buffer supplemented with proteinase inhibitors on ice for 10 min. The extracts were cleared with centrifugation (12,000g/5 min), and protein content was determined using Bradford assay. COX activity was determined with a COX Activity Assay Kit (Abcam). 6 μg of protein was used in the reaction. The experiment was set up according to the manufacturer’s instructions. The fluorescence (Ex/Em 535/587 nm) was read in a kinetic mode, and the COX inhibition was expressed as a percentage of the activity of the untreated control.

HeLa cells [5] = test: Lactate production; assay type: cell-based, human; conditions: 6 h, 5× IC50, free DCF at concentrations 380–770 times higher
Description: HeLa cells were seeded (1 × 10^5 cells/well) and grown in 12-well plates, treated with platinum agents, and diclofenac for 6 h. Lactate concentration in the culture medium was measured using a colorimetric Lactate Assay Kit (Sigma-Aldrich) following the manufacturer’s instructions. […] The amount of lactate in individual samples was determined from a standard curve and expressed as a percentage of non-treated control.

HeLa cells [6] = test: Mitochondrial membrane potential (TMRE, flow cytometry); assay type: cell-based, human; conditions: 10× IC50, 1 h, vs untreated control
Description: Figure 4 Changes in the mitochondrial membrane potential Δψm in HeLa cells. The cells were treated with Pt compounds at the concentrations corresponding to 10× IC50 for 1 h and subsequently stained with TMRE. The fluorescence was measured by flow cytometry. Data represents mean ± SD from three independent experiments, *p < 0.01.
HeLa cells were seeded (6-well plates, 3 × 10^5 cells/well), grown overnight, and then treated with the tested compounds for 1 h. The medium was removed, and a fresh medium containing TMRE (Thermo Fisher Scientific) at a final concentration of […] in 500 μL was added. The cells were incubated for 30 min at 37 °C and then harvested using trypsin. TMRE fluorescence was measured with a fluorescence-activated cell sorting (FACS) Verse flow cytometer (Becton Dickinson), and the data were analyzed using the ModFit LT 4.1 (Verity Software House) software. The experiment was performed in triplicate.

MRC-5 = test: MTT assay in non-cancerous fibroblasts, 72 h; assay type: cell-based; conditions: non-cancerous human fibroblasts, 72 h incubation, mean ± SD
Description: Cells were treated with the tested compounds in a final volume of 200 μL/well. […] Calbiochem, Darmstadt, Germany) was added, and the cells were incubated for an additional 2–4 h. The medium was removed, and the insoluble formazan product was dissolved in 100 μL/well DMSO. […] The read values were converted to the percentage of control. […] All experiments were made in triplicate.

Row | Structure (SMILES) | re-adhesion to the growth surface (HeLa cells [1]) | migration activity (wound closing) (HeLa cells [2]) | amount of Pt associated with DNA [3] [pg Pt/µg DNA] | glucose consumption (HeLa cells [4]) | inhibition of COX activity (COX in HeLa cells) | lactate excreted into media (HeLa cells [5]) | mitochondrial membrane potential Δψm (TMRE fluorescence) (HeLa cells [6]) | IC50 (MRC-5) [nM]
1 | Cc1c(C)c2c3c4c1=CC=C[N]4[Pt][N]3C=CC=2.NCCNC(=O)Cc1ccccc1Nc1c(Cl)cccc1Cl.NCCNC(=O)Cc1ccccc1Nc1c(Cl)cccc1Cl.N[C@H]1CCCC[C@@H]1N [complex 4, Pt^IV56MeSS(DCF)2] | lower the ability of HeLa cells to re-adhere to the growth surface | reduced the ability of HeLa cells to close artificial wounds | 4.6 ± 0.3 | reduction in glucose consumption | slightly but significantly inhibited COX-2 activity | considerably reduced | significant (p < 0.01) decrease in TMRE fluorescence | 320 ± 80
2 | Cc1c(C)c2c3c4c1=CC=C[N]4[Pt]([Cl])[N]3C=CC=2.NCCNC(=O)Cc1ccccc1Nc1c(Cl)cccc1Cl.N[C@H]1CCCC[C@@H]1N [complex 3, Pt(IV)56MESSenDCFCl] | lower the ability of HeLa cells to re-adhere to the growth surface | reduced the ability of HeLa cells to close artificial wounds | 2.3 ± 0.2 | reduction in glucose consumption | slightly but significantly inhibited COX-2 activity | considerably reduced | significant (p < 0.01) decrease in TMRE fluorescence | 700 ± 100
